# Test results as given in a melting point compilation (Tetko et al.; mined from patent text by program, amines drawn as free bases though some values may be those of a salt).
row,Compound,melting point
1,OCc1cc2cc(-c3ccccc3)ccc2[nH]1,115 to 116 °C
2,CN[C@@H](Cc1ccc(C(F)(F)F)cc1)[C@H](O)c1ccc(F)cc1 (racemic),79 to 80 °C
3,CCOC(=O)c1cn(C)c2ccc(C(=O)c3c(C)cc4ccccn34)cc2c1=O,232 °C
4,NC(=O)OCCN1Cc2ccccc2CCO1,110 to 111 °C
5,CCCCn1c(CO)nc2cnc3ccccc3c21,146 to 149 °C
6,CC(C)c1ccccc1Sc1c(O)cc(-c2ccc3c(c2)OCCO3)oc1=O,246 to 248 °C
7,CC(C)(C)c1ccc(Cn2c(=O)n(Cc3ccc(C(C)(C)C)cc3)c3ccccc32)cc1,164 to 168 °C
8,CCNC(=O)c1ccc(N2CCN(Cc3cnc4c(c3)NC(=O)[C@@H]3CSCCN43)CC2)cc1,289 °C
9,COC(=O)[C@H](Cc1ccc(NC(=O)c2c(Cl)cccc2Cl)cc1)NC(=O)OC(C)(C)C,148 to 151 °C
10,Cc1cc(C)cc(P(c2ccccc2)c2ccccc2)c1,67 to 69 °C
11,O=c1[nH]c2ncccc2c(=O)n1CCCCCCn1c(=O)[nH]c2ncccc2c1=O,324 to 328 °C
12,Cc1cc2c(cc1-c1cc(C=CC(=O)O)n(C)c1)C(C)(C)CCC2(C)C,185 to 186 °C
13,N#CN1CCSC1=NC1CCc2ccccc21 (stereo unspecified),90 to 91 °C
14,CN(C)CCC1(c2ccccc2)Cc2ccccc2C(=O)O1 (stereo unspecified),95 to 95.5 °C
15,COC(=O)c1cc2n(c1)CCc1ccccc1C2=O,125 to 127 °C
16,CC(=O)OC1N=C(c2ccccc2F)c2cc(Cl)ccc2-n2c1cnc2C (stereo unspecified),201 to 202 °C
17,CN(C)c1ccc2c(c1)C(=O)CC(c1ccc(OCc3ccccc3)cc1)=N2,283 to 285 °C
18,Brc1cccc2c1SSSSS2,93 to 98 °C
19,Nc1cccn2c(Cl)cnc12,126 to 127 °C
20,CC(C)c1nccn1N=Cc1ccccc1,65 to 66 °C

row,Compound,melting point
1,CCc1nn(CCO)c(CC)c1Cc1cc(C#N)cc(C#N)c1,115 to 117 °C
2,CN1C(=O)C(c2ccc(OC(F)F)cc2)(c2cccc(CCCC(F)(F)F)c2)N=C1N (stereo unspecified),70 °C
3,CN1CCN(CCC2C(=O)NC(c3ccc(Cl)cc3)c3ccccc32)CC1 (stereo unspecified),201 to 205 °C
4,Nc1ccc(-c2noc(-c3cnn4c(C(F)F)cc(-c5ccc(Cl)c(Cl)c5)nc34)n2)cn1,279 °C
5,O=C(NC1CCN(CCCOc2ccccc2-c2nnn[nH]2)CC1)c1ccccc1,275 to 277 °C
6,CC1CCc2c(N3CCCCC3)c(F)cc3c(=O)c(C(=O)O)cn1c23 (stereo unspecified),258 to 261 °C
7,O=C1Cc2ccccc2Sc2c1ccc(Cl)c2Cl,133 to 135 °C
8,COc1cc(C=O)cc(F)c1OC,51 to 53 °C
9,C[C@@H](CO)Oc1ccc(-c2ccccc2)cc1,75 to 78 °C
10,COc1cc(Cl)cc(CO)c1Cl,58 to 64 °C
11,COc1nc2c(N)nc3ccccc3c2n1Cc1ccccc1,240 to 242 °C
12,Nc1ccc(SCC2CC2)cc1[N+](=O)[O-],45 to 47 °C
13,N#CCC[C@H]1CC[C@@H](c2ccc(F)cc2)N1S(=O)(=O)c1ccc(Cl)cc1 (racemic),108 °C
14,O=C1N(Cc2ccc(F)cc2Cl)c2ccccc2C12COc1cc3c(cc12)OCO3 (stereo unspecified),174 to 175 °C
15,Clc1ccc(-n2nc(C3CC3)cc2C2CC2)nn1,102 to 105 °C
16,CNC(=O)C(=O)CCCCCCc1cnc(-c2ccc(Br)cc2)o1,90 to 92 °C
17,CC(Br)C(=O)c1ccc(O)cc1 (stereo unspecified),95 to 97 °C
18,CNC1CCN(c2cc3c(cc2F)c(=O)c(C(=O)O)c2n3C(C)S2)C1 (stereo unspecified),213 to 216 °C
19,Cc1ccc(C(=O)Nc2cc(-n3cncc3C)cc(C(F)(F)F)c2)cc1Nc1nccc(-c2cccnc2)n1,231 to 233 °C
20,Cn1c(N)c(CN2CCN(c3cccc4c3OCCO4)CC2)c(=O)n1-c1ccccc1,222 to 224 °C

row,Compound,melting point
1,CC(=O)c1cccc(NC(=O)NC2N=C(c3ccccc3F)c3cccc(C)c3N(CC(=O)N3CC4CCC(CC4)C3)C2=O)c1 (stereo unspecified),> 250 °C
2,CCC(CC)Nc1cc(C)nc(Cl)c1[N+](=O)[O-],82 to 84 °C
3,CC1(C)Oc2ccc(C#N)cc2C(Oc2ccc(O)nn2)C1(C)O (stereo unspecified),131 to 134 °C
4,CCC1(c2cccc(OCc3ccc4c(ccc(=O)n4C)c3)c2)CCOCC1,139 °C
5,CCN(CC)c1ccc(/C=C/C(=O)CC(=O)/C=C/c2ccc(O)c(OC)c2)c(O)c1,89 to 92 °C
6,CN(CC(=O)O)S(=O)(=O)c1ccc(Cl)cc1,180 to 182 °C
7,CC(=O)Oc1c(C)cc(N(C)C(=O)OC(C)(C)C)c(C)c1C,103 to 104 °C
8,Cn1c(=O)n(-c2ccccc2)c(=O)n1SC(Cl)(Cl)Cl,154 °C
9,Cc1ccc(/C=C/C2=CCN(Cc3ccc(Cl)cc3)CC2)cc1,122 to 124 °C
10,Nc1ncc(Oc2ccc(Cl)cc2)c(N2CCNCC2)n1,93 to 95 °C
11,CN(C)n1nnc2cc3c(cc2c1=O)OC1CCCN1C3=O (stereo unspecified),180 °C
12,CCCCCCc1ccc2c(c1)[nH]c1cc(COC(c3ccccc3)(c3ccccc3)c3ccccc3)ccc12,155 to 156 °C
13,CC(C)c1[nH]nc2c1C(=O)c1c(NC(=O)CN3CCC(C(N)=O)CC3)cccc1-2,224 to 225 °C
14,CCOC(=O)COc1ccc(S(=O)(=O)CCNS(=O)(=O)c2ccccc2)cc1,86.5 to 88 °C
15,O=c1nc(-c2ccccn2)sc2cccc(F)c12,256 to 257 °C
16,CS(=O)(=O)O[C@H]1CCNC1=O,122 to 124 °C
17,CN(Cc1ccccc1)Cc1c(-c2ccc(NC(=O)NO)cc2)sc2c1c(=O)n(-c1ccccc1)c(=O)n2Cc1c(F)cccc1F,164 to 165 °C
18,Cc1ccc(C2CCN(C(=O)Nc3ccc4nc(CN5CCCC5)ccc4c3)CC2)cc1,214 to 216 °C

# The next lines start with the values.
row,melting point,Compound
1,270 to 272 °C,O=C(O)c1cccc(-c2cc(-c3ccc(F)cc3)[nH]n2)c1
2,147 to 149 °C,CCOCc1nc2c(N)nc(C)c(C)c2n1NCCCNS(C)(=O)=O
3,212 to 216 °C,COc1ccc(N2CCOCC2)c2sc(NC(=O)C[C@H]3CC[C@@H](O)CC3)nc12
4,> 265 °C,CNC(=C[N+](=O)[O-])NCc1ccc2c(c1)Nc1nccnc1S2
5,97 °C,CC(=O)OCC1OC(SCC#N)C(OC(C)=O)C(OC(C)=O)C1OC(C)=O (stereo unspecified)
6,170 to 172 °C,O=C(O)COc1ccc(SCCc2ccc(-c3ccc(C(F)(F)F)cc3)cc2)c2c1CCC2
7,152 to 155 °C,Cn1ncnc1COc1nn2c(-c3ccccc3F)nncc2c1-c1cccc(C(F)(F)F)c1
8,59.5 to 61 °C,CNC(=C[N+](=O)[O-])NCCCOc1cccc(CCCN(C)C)c1
9,90 °C,O=C(c1ccc(O)cc1)c1c(-c2ccc(O)cc2)sc2ccccc12
10,124 to 125 °C,COc1ccc(CC#N)cc1C(=O)NCc1ccc(C(F)(F)F)cc1
11,100 °C,Cc1cc(-n2ccnc2)c2cccc(OCc3c(Cl)ccc(S(=O)(=O)N4CCC[C@H]4C(=O)NCC4CCN(C(=O)OC(C)(C)C)CC4)c3Cl)c2n1
12,167 to 170 °C,CC(C)OC(=O)N1CCC(c2nc3cc(-c4ccc(C=O)cc4)ccc3o2)CC1
13,164 to 166 °C,CC(=O)Nc1ccc(C(C)=C(Cl)Cl)cc1
14,185 to 186 °C,COc1ccc(C2=NN(C3CCN(S(=O)(=O)c4ccc(Cl)cc4)CC3)C(=O)CC2)cc1OC
15,89 to 91 °C,CCOC(=O)C(C)=NNc1ccc(F)c(Cl)c1
16,112 to 113 °C,CC1(C)OC(CS(=O)(=O)c2ccc(Cl)cc2)=CC1=O
17,115 to 118 °C,NC(=O)CCC1CN(c2ccc3c(c2)OCC2CN(C(=O)CO)CCN32)C(=O)O1 (stereo unspecified)
18,< 37 °C,COc1cc2cc(C(C)C)sc2c(Cl)c1Cl
19,101 to 102 °C,COc1cc(CCC(=O)CC(=O)c2ccc3ccccc3c2)ccc1O
20,235 to 237 °C,CCCc1c2nc(C(=O)OCC)cc(NC)c2cc2c(=O)cc(C(=O)OCC)oc12
21,79 to 80 °C,CCc1nc(COc2ccc([N+](=O)[O-])cc2)cs1
22,219 to 228 °C,CC(=O)Nc1ccc(S(=O)(=O)Nc2ccn(C3CCCC3)c(=O)n2)cc1

row,melting point,Compound
1,101 to 102 °C,COC(=O)C1Sc2cc(OCc3ccccc3)ccc2OCC1=O (stereo unspecified)
2,61 to 63 °C,CC1(C)CC(=O)C1(Br)CC(Br)(Br)Br (stereo unspecified)
3,235 to 236 °C,COC(=O)Nc1cc(OC)c(-c2ccc(C[C@H](NC(=O)c3c(Cl)cccc3Cl)C(=O)O)cc2)c(OC)c1
4,98 to 100 °C,C=C(F)c1c(C(=O)OC)nc(Cl)c(F)c1N
5,151 to 154 °C,COc1c(CS(C)(=O)=O)cnc2ccccc12
6,156 to 157 °C,Cc1ccc(C(=O)O)c([N+](=O)[O-])c1
7,52 to 54 °C,CS(=O)(=O)Nc1ccnn1-c1ncc(Cl)cc1Cl
8,131 to 132 °C,CCOC(=O)C1=Cc2ccc(O)cc2OCC1
9,81 to 82 °C,C=C(C)C(=O)OCCOc1ccc(/C=C/C(=O)OC)cc1
10,142 to 144 °C,Nc1ccc(OC(F)(F)F)cc1C(=O)O
11,33 to 36 °C,N#Cc1cccc(-n2ccc3ccccc32)c1
12,82 to 84 °C,CCN(CC)CCOCCc1ccc2sc(C(N)=O)cc2c1
13,225 °C,O=C1O[C@@H](Cn2ccnn2)CN1c1ccc(-c2ccc(C3=NOC(C4(O)CCCC4)C3)nc2)c(F)c1 (stereo partly specified)
14,103 to 106 °C,COC(=O)C(=[N+]=[N-])c1ccc(S(C)(=O)=O)c(Cl)c1
15,198 to 199 °C,COc1ccc(Oc2cccc(-c3nnc(Nc4ccc(Cl)c(Cl)c4)s3)c2)cc1
16,138 °C,Cc1c(NC(=O)c2ccc(OCC3CCCO3)cc2)ccc2cc(CNCC(C)(C)O)cnc12 (stereo unspecified)
17,104 to 105 °C,O=C(O)c1cccc(OCCF)c1OCCF
18,104 °C,COCC1CN(c2ccc(OCCCC3(C)OC(COS(=O)(=O)c4ccc(C)cc4)C(COS(=O)(=O)c4ccc(C)cc4)O3)cc2)C(=O)O1 (stereo unspecified)
19,175 to 176 °C,O=[N+]([O-])c1ccc(OCc2cscn2)cc1
20,95 to 96 °C,COc1cccc(C(=O)Nc2cc(C(=O)NCc3ccccc3)ccn2)c1
21,92 to 94 °C,C=CC[C@H]1C(=O)N(S(C)(=O)=O)[C@H]2CCN(C(=O)OCc3ccccc3)[C@H]12 (relative stereo)
